By IC50 is commonly meant the concentration that inhibits the measured activity by half.

What all share (format): cell-based
One assay deals with T1, MET channel (Mus musculus, UniProt Q8R4P5).
T1 construct: the basilar membrane with hair cells was acutely dissected from neonatal mice; endogenous in cells; host or cells: outer hair cells of acutely dissected neonatal mouse cochlea
Nature of the assay: MET current (IMET) inhibition by blockers, whole-cell voltage clamp of OHCs with glass-probe hair-bundle deflection. The protocol: All experiments were performed at room temperature (20–25°C). Briefly, the basilar membrane with hair cells was acutely dissected from neonatal mice. […] The acutely isolated or cultured basilar membrane was used for electrophysiological recording within 1 h. […] Hair cells were recorded with a patch-clamp amplifier (EPC 10 USB and Patchmaster software, HEKA Elektronik, Lambrecht/Pfalz, Germany).
(§1) The sampling rate was 1 kHz for leak current recording, 50 kHz for the IV protocol and current-clamp recording, and 100 kHz for unitary channel recording. The voltage-clamp used a –70 mV holding potential, and the current-clamp was held at 0 pA. Only recordings with a current baseline <20 pA in NMDG solution were used for statistical analysis.
The hair bundle was deflected by two types of mechanical stimulus, fluid jet and glass probe. […] In brief, a 40 Hz sinusoidal wave stimulus was delivered by a 27-mm-diameter piezoelectric disc driven by a home-made piezo amplifier pipette with a tip diameter of 3–5 μm positioned 5–10 μm from the hair bundle to evoke maximum MET currents. […] The actuator was driven with voltage steps that were low-pass filtered at 10 KHz. To avoid bundle damage caused by overstimulation, the glass probe was shaped to have a slightly smaller diameter than the hair bundles, and the stimulation distance was 800 nm for macroscopic current and 100 nm for unitary channel recording. For hair bundle removal, a pipette with 1 μm diameter tip was used to suck away the hair bundles of the target OHCs. The hair-bundle-removed OHCs with good condition were further recorded. Examined by a fluid-jet stimulation, the OHCs without obvious MET current were further measured for the leak current.
(§2) Dose-inhibition curves were fitted with a Hill equation: Ix/Imax=X^h/(K^h+X^h))
(§3) Where K is the half-inhibition dose (IC50) and h is the Hill slope. Imax is the maximal current in control condition.

Assay [1] has as its target T2, TMC1-mediated leak conductance (Mus musculus, UniProt Q8R4P5).
T2 sequence (Q8R4P5 1-757): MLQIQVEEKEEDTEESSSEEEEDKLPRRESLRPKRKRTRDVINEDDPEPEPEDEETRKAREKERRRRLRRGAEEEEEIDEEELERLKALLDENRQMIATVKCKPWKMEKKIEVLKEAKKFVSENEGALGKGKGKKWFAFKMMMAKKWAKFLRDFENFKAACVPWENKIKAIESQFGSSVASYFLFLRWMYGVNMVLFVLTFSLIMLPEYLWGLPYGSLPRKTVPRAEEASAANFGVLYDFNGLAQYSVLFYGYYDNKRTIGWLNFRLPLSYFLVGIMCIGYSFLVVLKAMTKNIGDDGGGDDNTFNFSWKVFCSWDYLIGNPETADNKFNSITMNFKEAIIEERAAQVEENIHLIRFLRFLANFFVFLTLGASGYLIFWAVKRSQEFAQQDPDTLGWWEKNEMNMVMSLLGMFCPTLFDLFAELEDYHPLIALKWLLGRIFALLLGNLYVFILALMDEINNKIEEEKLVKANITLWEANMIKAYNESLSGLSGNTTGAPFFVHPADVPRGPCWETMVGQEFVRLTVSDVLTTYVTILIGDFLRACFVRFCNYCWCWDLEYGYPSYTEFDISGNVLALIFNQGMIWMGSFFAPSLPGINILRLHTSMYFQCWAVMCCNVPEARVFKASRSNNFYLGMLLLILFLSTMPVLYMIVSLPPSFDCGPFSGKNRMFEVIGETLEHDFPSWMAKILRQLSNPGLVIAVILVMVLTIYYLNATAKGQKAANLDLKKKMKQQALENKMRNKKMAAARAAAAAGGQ
Nature of the assay: Background/leak current (IBG) inhibition by blockers, whole-cell voltage clamp of OHCs. The protocol: Hair cells were recorded using whole-cell voltage or current clamp as previously described ([Xiong et al., 2012]). All experiments were performed at room temperature (20–25°C). Briefly, the basilar membrane with hair cells was acutely dissected from neonatal mice. […] The acutely isolated or cultured basilar membrane was used for electrophysiological recording within 1 h. Hair cells were imaged under an upright microscope (BX51WI, Olympus, Tokyo, Japan) with a 60 × water immersion objective and an sCMOS camera (ORCA Flash4.0, Hamamatsu, Hamamatsu City, Japan) controlled by MicroManager 1.6 software ([Edelstein et al., 2010]). Patch pipettes were made from borosilicate glass capillaries (BF150-117-10, Sutter Instrument Co., Novato, CA) with a pipette puller (P-2000, Sutter) and polished on a microforge (MF-830, Narishige, Tokyo, Japan) to resistances of 4–6 M'Ω. […] Hair cells were recorded with a patch-clamp amplifier (EPC 10 USB and Patchmaster software, HEKA Elektronik, Lambrecht/Pfalz, Germany).
as §1, §2, §3

Assay [2] has as its target T3, TMC1-mediated leak current (Mus musculus, UniProt Q8R4P5).
T3 construct: the basilar membrane with hair cells was acutely dissected from neonatal mice; endogenous in cells; host or cells: outer hair cells of acutely dissected neonatal mouse cochlea
T3 sequence (Q8R4P5 1-757): T2 sequence (Q8R4P5 1-757)
The assay is described as follows: MET-independent leak current (ILeak) in OHCs, MET channel closed by fluid jet or 100 μM DHS, NMDG subtraction (also by cochlear location and age). Particulars: 0.3 mM Ca2+. How it is done: Thus, the IBG may come from the resting MET current. […] A sinusoidal fluid jet deflected the hair bundle back and forth to open and close the MET channels (Figure 3A, inset). The Im was 98 pA at rest (Figure 3A,B), while the Im was 45 pA at fluid-jet-closed status (Figure 3B, #1). […] Thus, the ILeak persisted in either mechanical closure or pharmacological blockade of the MET channel (Figure 3C).
(§4) Hair cells were recorded using whole-cell voltage or current clamp as previously described ([Xiong et al., 2012]). All experiments were performed at room temperature (20–25°C). Briefly, the basilar membrane with hair cells was acutely dissected from neonatal mice. […] The acutely isolated or cultured basilar membrane was used for electrophysiological recording within 1 h. Hair cells were imaged under an upright microscope (BX51WI, Olympus, Tokyo, Japan) with a 60 × water immersion objective and an sCMOS camera (ORCA Flash4.0, Hamamatsu, Hamamatsu City, Japan) controlled by MicroManager 1.6 software ([Edelstein et al., 2010]). Patch pipettes were made from borosilicate glass capillaries (BF150-117-10, Sutter Instrument Co., Novato, CA) with a pipette puller (P-2000, Sutter) and polished on a microforge (MF-830, Narishige, Tokyo, Japan) to resistances of 4–6 M'Ω. Intracellular solution contained (in mM): 140 CsCl, 1 MgCl2, 0.1 EGTA, 2 Mg-ATP, 0.3 Na-GTP, and 10 H-HEPES, pH 7.2), except when CsCl was replaced with KCl in current-clamp. Hair cells were recorded with a patch-clamp amplifier (EPC 10 USB and Patchmaster software, HEKA Elektronik, Lambrecht/Pfalz, Germany).
The sampling rate was 1 kHz for leak current recording, 50 kHz for the IV protocol and current-clamp recording, and 100 kHz for unitary channel recording. The voltage-clamp used a –70 mV holding potential, and the current-clamp was held at 0 pA. […]
The hair bundle was deflected by two types of mechanical stimulus, fluid jet and glass probe. […] The hair-bundle-removed OHCs with good condition were further recorded. Examined by a fluid-jet stimulation, the OHCs without obvious MET current were further measured for the leak current.

The target of a further assay is T4, leak current in OHCs (Mus musculus, UniProt Q8R4P5).
T4 construct: the basilar membrane with hair cells was acutely dissected from neonatal mice; endogenous in cells; host or cells: outer hair cells of acutely dissected neonatal mouse cochlea
T4 sequence (Q8R4P5 1-757): T2 sequence (Q8R4P5 1-757)
Nature of the assay: Ion-permeation tests of the leak current (ion substitution in the external solution). Conditions: 150 mM NaCl partially or completely replaced (150 mM CsCl; 75 mM Ca2+); compared with Na+. How it is done: as §4
In Figure 6A, LiCl and CsCl were 150 mM, completely substituting for NaCl.

Several values for one entry are separate records, joined by “and”; a condition that tells them apart may be missing. Equal values may be shown once. Read-outs that look alike come from different tables or passages of the source.

T1 sequence (Q4KL25 whole entry partner, one chain of several): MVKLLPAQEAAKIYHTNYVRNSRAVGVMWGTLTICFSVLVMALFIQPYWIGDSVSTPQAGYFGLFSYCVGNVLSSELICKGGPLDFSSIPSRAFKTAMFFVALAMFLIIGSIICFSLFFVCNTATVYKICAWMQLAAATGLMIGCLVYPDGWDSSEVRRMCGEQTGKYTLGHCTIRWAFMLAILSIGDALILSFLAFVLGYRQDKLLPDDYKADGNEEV
T1 sequence (Q8K467 29-153 partner, one chain of several): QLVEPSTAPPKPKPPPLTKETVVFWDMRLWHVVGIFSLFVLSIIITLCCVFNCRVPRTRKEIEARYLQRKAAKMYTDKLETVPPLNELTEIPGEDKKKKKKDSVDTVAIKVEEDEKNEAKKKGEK
T1 sequence (Q9Z309 whole entry partner, one chain of several): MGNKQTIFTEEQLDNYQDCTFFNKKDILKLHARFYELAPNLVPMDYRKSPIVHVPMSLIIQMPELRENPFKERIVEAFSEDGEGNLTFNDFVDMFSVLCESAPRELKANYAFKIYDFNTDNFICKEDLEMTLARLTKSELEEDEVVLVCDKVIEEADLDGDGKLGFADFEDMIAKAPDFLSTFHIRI

For `CN[C@@H]1[C@H](O[C@H]2[C@H](O[C@H]3[C@H](O)[C@@H](O)[C@H](NC(=N)N)[C@@H](O)[C@@H]3NC(=N)N)O[C@@H](C)[C@]2(O)CO)O[C@@H](CO)[C@H](O)[C@H]1O` [DHS, dihydrostreptomycin], the IC50 on MET channel (read-out: IC50, IMET) came to 15 µM. In addition, in assay [1] (100 μM, working concentration that blocks MET channels), the “blocking effect on the current baseline” value is “no blocking effect”. In assay [1] (DHS 100 μM), the “Leak (normalized)” value is 0.7251 and 0.66 and 1.086 and 0.62 and 0.8723 and 0.8832 and 0.9258. Moreover, the IC50 in assay [1] (OHCs, […] Ca2+, holding −70 mV, Hill fit; read-out: IC50, IBG (leak conductance)) is 487 µM. In assay [2] (holding −70 mV), the “DHS-NMDG (ILeak subtracted from that closed by 100 μM DHS), mean ± SEM” value was “–65 ± 6 pA” and the “membrane current in 144 Na + 0.1 DHS (IDHS)” value was determined as 55 pA. The “DHS-NMDG subtracted current, individual cells” value in assay [2] (source data of Figure 3C) was -80.6086 pA and -48.8286 pA and -49.155 pA and -61.767 pA and -98.5004 pA and -60.6081 pA and -57.9458 pA and -59.6138 pA.

In the case of `N=C(N)NC(=O)c1nc(Cl)c(N)nc1N` [Amiloride, amiloride], in assay [1] (graded concentrations), the “effect on the leak current compared with the MET current” value is on record as “affected the leak current, albeit at higher concentrations than the MET current”.

Turning to `[Cl-].[Cs+]` [Cs^+, CsCl], the “size of ILeak conducted by the substituted cation” value on leak current in OHCs is listed as “slightly larger”.

With `COc1cc2c3cc1Oc1cc(ccc1O)C[C@@H]1c4c(cc(OC)c(O)c4Oc4ccc(cc4)C[C@@H]3N(C)CC2)CC[N+]1(C)C` [dTC, d-tubocurarine], the IC50 was 6 µM at MET channel and 82 µM in assay [1] (read-out: IC50, IBG (leak conductance); OHCs, […] Ca2+, holding −70 mV, Hill fit). Also, the Leak nor in assay [1] (dTC 0.01) was 1.062 and 1.003 and 1.024 and 0.9706 and 0.8444 and 0.8511 and 0.9123. For the same molecule, the “effect on the leak current compared with the MET current” value in assay [1] (graded concentrations) is “affected the leak current, albeit at higher concentrations than the MET current”.
